Results from patent US10624905B2, “Corticosteroids for the treatment of joint pain” (Flexion Therapeutics, Inc., priority 2013, dated 2020).
Converted amounts (≈) assume the structure as drawn. “And” between values parts separate entries of the source, which are not always exact repeats. Equal entries are not always repeated. Where two headings read alike, the source gives them in different places.

Assays:
[1] = TCA in rat plasma, i.v. 50 mg/kg bolus + 23 mg/kg/h infusion, cited from earlier work
[2] = tested on: HPA axis (corticosterone levels); assay: Inhibition of the HPA axis (corticosterone levels) in rats, PK-PD analysis; format: in vivo; conditions: rat, PK-PD inhibitory model
[3] = tested on: rat model of osteoarthritis of the knee (PGPS); assay: Rat PGPS model of osteoarthritis of the knee: histopathology of the knees; format: in vivo; conditions: inflammatory milieu
Description: Efficacy of single intra-articular (IA) doses of FX006 (TCA in 75:25 PLGA formulation microparticles) and TCA IR (immediate release) was evaluated in a rat model of osteoarthritis of the knee via sensitization and challenge by peptidoglycan polysaccharide (PGPS). The model involves priming the animals with an intra-articular injection of PGPS in the right knee. The following day, any animals with no knee discomfort were eliminated from the test article groups and placed into the baseline group. Two weeks later, knee inflammation was reactivated by a tail vein injection of PGPS, 2.5 hr following IA dosing with FX006 or TCA IR at the doses selected (n=10/group). Differences in weight-bearing and gait (as a measure of joint pain experienced by the animals), histopathology, plasma PK etc. were evaluated.

[4] = cited from earlier work
[5] = tested on: endogenous cortisol production; assay: Steady-state doses and plasma concentrations for target suppression of endogenous cortisol production; parameters: species or system human; conditions: steady-state HPA axis suppression
Description: In this regard, it has been determined that standard doses of familiar corticosteroids, when examined from the viewpoint of steady-state HPA axis suppression (i.e., after desensitization has occurred), provide clinically useful benchmarks. For example, while oral prednisolone given at 20 mg QD produces a 73% cortisol suppression, even 5 mg QD (considered a “low dose”) is associated with a 40% suppression of endogenous cortisol production. […]
As a result of these clinical findings, the dose range to achieve clinically useful analgesia, with minimal or controlled modulation of the HPA axis, at steady state concentrations of various corticosteroids has been determined (Table 2). […]
In addition, with these continuous daily doses of intra-articular corticosteroids, it is possible to determine the related systemic plasma level concentrations (Table 3) that will produce the target cortisol inhibition and not beyond, this while retaining clinically important anti-inflammatory and analgesic activity within the joint. […] The levels calculated in Table 3 were purely hypothetical calculations based on human data with immediate release-level doses from the literature. […] A given level of plasma concentration may actually provide less inhibition that would have been predicted or calculated using the human IR levels from the literature. […]

[6] = tested on: HPA axis; conditions: 20 mg intra-articular injection; day 3; transient; cited from earlier work

In the case of Triamcinolone Acetonide Phosphate, the CL ([1]; Mean ± SD) is listed as 15.6 ± 3.13 mL/min/kg, the T1/2β ([1]; Mean ± SD) is listed as 2.71 ± 1.09 h and the Vc ([1]; Mean ± SD) is listed as 0.944 ± 0.314 L/kg. The fu ([1]; Mean ± SD) was 0.093 ± 0.015, the k21 ([1]; Mean ± SD) was 0.937 ± 0.261 h^1 and the CL ([1]; individual rats 1-3) was 19.2 mL/min/kg and 13.2 mL/min/kg and 14.5 mL/min/kg. For the same compound, the T1/2β ([1]; individual rats 1-3) was 1.55 h and 3.71 h and 2.87 h, the Vc ([1]; individual rats 1-3) was 0.684 L/kg and 0.856 L/kg and 1.29 L/kg and the fu ([1]; individual rats 1-3) was 0.084 and 0.110 and 0.085. For the same compound, the k12 ([1]; individual rats 1-3) was 1.64 h^1 and 1.79 h^1 and 1.59 h^1 and the k21 ([1]; individual rats 1-3) was 1.04 h^1 and 0.640 h^1 and 1.13 h^1.
In the case of CC1(C)O[C@@H]2C[C@H]3[C@@H]4CCC5=CC(=O)C=C[C@]5(C)[C@@]4(F)[C@@H](O)C[C@]3(C)[C@]2(C(=O)CO)O1 [triamcinolone acetonide, 9α-Fluoro-11β,16α,17α,21-tetrahydroxy-1,4-pregnadiene-3,20-dione 16,17-acetonide], the “systemic TCA level at which Emax of corticosterone inhibition was achieved” value [2] is reported as 50 to 80 ng/mL, the IC50 ([2]; read-out: IC50 of corticosterone inhibition versus systemic TCA levels) is reported as about 1 ng/mL (≈ 2.3 nM) and the effect on cartilage [3] is reported as “no deleterious effect on cartilage”. For the same compound, the “contribution of the immediate release component to the plasma concentration” value ([4]; 40 mg immediate release, intra-articular, by day 12) was “less than 0.1 ng/ml” and the peak plasma concentration ([4]; 40 mg immediate release, intra-articular, day 1) was “approximately 10 ng/ml”.
With C[C@]12C=CC(=O)C=C1CC[C@@H]1[C@@H]2[C@@H](O)C[C@@]2(C)[C@H]1CC[C@]2(O)C(=O)CO [prednisolone, 11β,17,21-trihydroxypregna-1,4-diene-3,20-dione] the “suppression of endogenous cortisol production” value ([5]; oral 5 mg QD) was 40% and the cortisol suppression ([5]; oral 20 mg QD) was 73%.
For CC(C)(C)CC(=O)OCC(=O)[C@@]12OC(C)(C)O[C@@H]1C[C@H]1[C@@H]3CCC4=CC(=O)C=C[C@]4(C)[C@@]3(F)[C@@H](O)C[C@@]12C [triamcinolone hexacetonide], the HPA-axis suppression [6] is given as 75% and the plasma levels ([4]; 20 mg intra-articular injection, day 3) is given as 3 to 4 ng/mL.
